Reference: ChEMBL document CHEMBL1201862, “PubChem BioAssay data set” (2004)
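Exposure lasted 48 hours, with cells grown in 96-well plates and compounds tested at five concentrations. At the GI50, growth is halved.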 Activity calls are given as the source filed them. Cut-off read from the data, not from the text of the source: active = GI50 up to about 1.1 µM and inactive = higher.

Tests used:
Experiment in all cases: NCI anticancer screen, dose series, 48 h
[1] = system: 786-0
[2] = system: A498
[3] = system: A549
[4] = system: ACHN
[5] = system: CAKI-1
[6] = system: CCRF-CEM
[7] = system: COLO 205
[8] = system: DU-145
[9] = system: EKVX
[10] = system: HCC 2998
[11] = system: HCT-116
[12] = system: HCT-15
[13] = system: HL-60
[14] = system: HOP-62
[15] = system: HOP-92
[16] = system: HT-29
[17] = system: Hs-578T
[18] = system: IGROV-1
[19] = system: K562
[20] = system: KM12
[21] = system: LOX IMVI
[22] = system: M14
[23] = system: MCF7
[24] = system: MDA-MB-231
[25] = system: MDA-MB-435
[26] = system: MDA-N
[27] = system: MOLT-4
[28] = system: Malme-3M
[29] = system: NCI-H226
[30] = system: NCI-H23
[31] = system: NCI-H460
[32] = system: NCI-H522
[33] = system: NCI/ADR-RES
[34] = system: OVCAR-3
[35] = system: OVCAR-4
[36] = system: OVCAR-5
[37] = system: OVCAR-8
[38] = system: PC-3
[39] = system: RPMI-8226
[40] = system: RXF 393
[41] = system: SF-268
[42] = system: SF-295
[43] = system: SF-539
[44] = system: SK-MEL-28
[45] = system: SK-MEL-2
[46] = system: SK-MEL-5
[47] = system: SK-OV-3
[48] = system: SN12C
[49] = system: SNB-19
[50] = system: SNB-75
[51] = system: SW-620
[52] = system: T47D
[53] = system: TK-10
[54] = system: U-251
[55] = system: UACC-257
[56] = system: UACC-62
[57] = system: UO-31
[58] = system: SR

## COc1ccc(OC)c2c1C1CCC(=O)N1CN2C(C)=O (configuration not stated)
[1]
  GI50: > 100 µM (inactive)
[2]
  GI50: > 100 µM (inactive)
[3]
  GI50: > 100 µM (inactive)
[4]
  GI50: > 100 µM (inactive)
[5]
  GI50: > 100 µM (inactive)
[6]
  GI50: > 100 µM (inactive)
[7]
  GI50: > 100 µM (inactive)
[8]
  GI50: > 100 µM (inactive)
[9]
  GI50: > 100 µM (inactive)
[10]
  GI50: > 100 µM (inactive)
[11]
  GI50: > 100 µM (inactive)
[12]
  GI50: > 100 µM
[13]
  GI50: > 100 µM (inactive)
[14]
  GI50: > 100 µM (inactive)
[15]
  GI50: > 100 µM (inactive)
[16]
  GI50: > 100 µM (inactive)
[17]
  GI50: > 100 µM (inactive)
[18]
  GI50: > 100 µM (inactive)
[19]
  GI50: > 100 µM (inactive)
[20]
  GI50: > 100 µM (inactive)
[21]
  GI50: > 100 µM (inactive)
[22]
  GI50: > 100 µM (inactive)
[23]
  GI50: > 100 µM (inactive)
[24]
  GI50: > 100 µM (inactive)
[25]
  GI50: > 100 µM (inactive)
[26]
  GI50: > 100 µM (inactive)
[27]
  GI50: > 100 µM (inactive)
[28]
  GI50: > 100 µM (inactive)
[29]
  GI50: > 100 µM (inactive)
[30]
  GI50: > 100 µM (inactive)
[31]
  GI50: > 100 µM (inactive)
[32]
  GI50: > 100 µM (inactive)
[33]
  GI50: > 100 µM (inactive)
[34]
  GI50: > 100 µM (inactive)
[35]
  GI50: > 100 µM (inactive)
[36]
  GI50: > 100 µM (inactive)
[37]
  GI50: > 100 µM (inactive)
[38]
  GI50: > 100 µM (inactive)
[39]
  GI50: > 100 µM (inactive)
[40]
  GI50: > 100 µM (inactive)
[41]
  GI50: 75.5 µM (inactive)
[42]
  GI50: > 100 µM (inactive)
[43]
  GI50: > 100 µM (inactive)
[44]
  GI50: > 100 µM (inactive)
[45]
  GI50: > 100 µM (inactive)
[46]
  GI50: > 100 µM (inactive)
[47]
  GI50: > 100 µM (inactive)
[48]
  GI50: > 100 µM (inactive)
[49]
  GI50: > 100 µM (inactive)
[50]
  GI50: > 100 µM (inactive)
[51]
  GI50: > 100 µM (inactive)
[52]
  GI50: > 100 µM (inactive)
[53]
  GI50: > 100 µM (inactive)
[54]
  GI50: > 100 µM (inactive)
[55]
  GI50: > 100 µM (inactive)
[56]
  GI50: > 100 µM (inactive)
[57]
  GI50: > 100 µM (inactive)

## Clc1ccc(/C=N/Nc2nnc3c4ccccc4c4ncccc4c3n2)cc1
[1]
  GI50: > 10 µM (inactive)
[3]
  GI50: > 10 µM (inactive)
[5]
  GI50: > 10 µM (inactive)
[7]
  GI50: > 10 µM (inactive)
[8]
  GI50: > 10 µM (inactive)
[9]
  GI50: > 10 µM (inactive)
[10]
  GI50: > 10 µM (inactive)
[12]
  GI50: > 10 µM
[13]
  GI50: > 10 µM (inactive)
[14]
  GI50: > 10 µM (inactive)
[16]
  GI50: > 10 µM (inactive)
[18]
  GI50: > 10 µM (inactive)
[19]
  GI50: > 10 µM (inactive)
[20]
  GI50: > 10 µM (inactive)
[22]
  GI50: > 10 µM (inactive)
[23]
  GI50: > 10 µM (inactive)
[24]
  GI50: > 10 µM (inactive)
[26]
  GI50: > 10 µM (inactive)
[27]
  GI50: > 10 µM (inactive)
[28]
  GI50: > 10 µM (inactive)
[30]
  GI50: > 10 µM (inactive)
[37]
  GI50: > 10 µM (inactive)
[38]
  GI50: > 10 µM (inactive)
[39]
  GI50: > 10 µM (inactive)
[40]
  GI50: > 10 µM (inactive)
[41]
  GI50: > 10 µM (inactive)
[42]
  GI50: > 10 µM (inactive)
[44]
  GI50: > 10 µM (inactive)
[46]
  GI50: > 10 µM (inactive)
[47]
  GI50: > 10 µM (inactive)
[48]
  GI50: > 10 µM (inactive)
[50]
  GI50: > 10 µM (inactive)
[58]
  GI50: > 10 µM (inactive)
[51]
  GI50: > 10 µM (inactive)
[52]
  GI50: > 10 µM (inactive)
[53]
  GI50: > 10 µM (inactive)
[55]
  GI50: > 10 µM (inactive)
[56]
  GI50: > 10 µM (inactive)

## CN1CCN(Cn2nc(COc3ccc(Cl)cc3)n(/N=C/c3ccc(-c4ccc(Cl)cc4Cl)o3)c2=S)CC1
[1]
  GI50: 5.12 µM (inactive)
[2]
  GI50: 18.3 µM (inactive)
[4]
  GI50: 19.7 µM (inactive)
[5]
  GI50: 14.2 µM (inactive)
[6]
  GI50: 0.247 µM (active)
[8]
  GI50: 11.9 µM (inactive)
[9]
  GI50: 14.5 µM (inactive)
[10]
  GI50: 3.18 µM (inactive)
[11]
  GI50: 13.4 µM (inactive)
[12]
  GI50: 18.6 µM
[14]
  GI50: 5 µM (inactive)
[15]
  GI50: 8.47 µM (inactive)
[16]
  GI50: 3.7 µM (inactive)
[17]
  GI50: 3.72 µM (inactive)
[18]
  GI50: 10.6 µM (inactive)
[19]
  GI50: 15.2 µM (inactive)
[20]
  GI50: 3.18 µM (inactive)
[21]
  GI50: 5.57 µM (inactive)
[23]
  GI50: 8.32 µM (inactive)
[24]
  GI50: 7 µM (inactive)
[25]
  GI50: 2.55 µM (inactive)
[26]
  GI50: 4.02 µM (inactive)
[27]
  GI50: 16.7 µM (inactive)
[29]
  GI50: 19.6 µM (inactive)
[31]
  GI50: 17.8 µM (inactive)
[32]
  GI50: 3.72 µM (inactive)
[33]
  GI50: 20.5 µM (inactive)
[34]
  GI50: 14.1 µM (inactive)
[35]
  GI50: 3.05 µM (inactive)
[36]
  GI50: 6.46 µM (inactive)
[37]
  GI50: 4.89 µM (inactive)
[38]
  GI50: 11.2 µM (inactive)
[40]
  GI50: 2.33 µM (inactive)
[41]
  GI50: 3.95 µM (inactive)
[42]
  GI50: 13.4 µM (inactive)
[43]
  GI50: 26.4 µM (inactive)
[44]
  GI50: 13.9 µM (inactive)
[45]
  GI50: 18.3 µM (inactive)
[46]
  GI50: 14.8 µM (inactive)
[47]
  GI50: 15.7 µM (inactive)
[58]
  GI50: 2.63 µM (inactive)
[51]
  GI50: 5.06 µM (inactive)
[52]
  GI50: 6.64 µM (inactive)
[53]
  GI50: 14.5 µM (inactive)
[54]
  GI50: 10.9 µM (inactive)
[55]
  GI50: 17.6 µM (inactive)
[57]
  GI50: 17.6 µM (inactive)
